Laboratory results published in patent US20060199835A1, “Neuroprotective and anti-proliferative compounds” (priority 2004, published 2006).

Assays:
Type in all cases: cell-based
[1] = system: Human lymphoma jurkat cells; test: Killing of cultured Jurkats with and without anti-Fas (propidium iodide, Facs); conditions: 19 hours
Protocol: Jurkats are a T-cell derived lymphoma cell line which expresses both FAS receptor and Fas-L. These cells, however, are only mildly sensitive to Fas-L/anti-Fas induced apoptosis. Select compounds were tested for their ability to kill jurkats. Additionally, we investigated the ability of select compounds to sensitize jurkats to anti-Fas mediated apoptosis.
Human lymphoma jurkat cells were cultured in suspension in 24 well plates. Jurkat cell were treated with test compounds either alone or in the presence of suboptimal doses of anti-Fas antibody. […] Cells were incubated with propidium iodide and the percentage of cells that incorporated the stain was counted by Facs.

[2] = system: Human prostate DU145 cells; test: Killing of DU145 prostate cancer cells (Alamar Blue, 7 day treatment)
Protocol: Prostate cancer is often resistant to traditional chemotherapies. DU145 is representative prostated cancer cell line. DU145 cells were cultured in the presence of various concentrations of compound 136. Compound 136 kills 100% of the cells at 10 μM, with an IC50 of approximately 7 μM.
Human prostate DU145 cells were cultured in 96 well dishes. Cells were treated with various concentrations of test compounds for 7 days. Media was then removed and replaced with fresh media containing Alamar Blue. The cells were incubated for a further 4 hours and Alamar blue and conversion was assessed by fluorescence. Compound effectiveness was determined by assessing the reduction in Alamar blue bioconversion following 7 day treatment.

Human lung H460 cells = test: Killing of H460 cells (Alamar Blue, 24 hour treatment)
Protocol: H460 is representative of a […] cancer cell line.
Human lung H460 cells (7000 cells/well) were cultured in 96 well dishes. Cells were treated with various concentrations of test compounds for 24 hours. Media was then removed and replaced with fresh media containing Alamar Blue. The cells were incubated for a further 4 hours and Alamar blue and conversion was assessed by fluorescence. Compound effectiveness was determined by assessing the reduction in Alamar blue bioconversion following 24 hour treatment.

[3] = Dose 0.3, with anti-Fas (5 ng/mL)
[4] = Dose 1, with anti-Fas (5 ng/mL)
[5] = Dose 3, with anti-Fas (5 ng/mL)
[6] = Dose 10, with anti-Fas (5 ng/mL)
[7] = Dose 30, with anti-Fas (5 ng/mL)

Row | Compound | Survival % Without Anti-Fas ([1]; Dose 3 (μM)) [%] | Survival % With Anti-Fas [1, 5] [%] | Survival % Without Anti-Fas ([1]; Dose 10 (μM)) [%] | Survival % With Anti-Fas [1, 6] [%] | also measured
1 | 3-(3-(amidinothio)propyl)indol-1-yl)-4-(5-benzyloxy-1-methylindol-3-yl)-4-pyrrole-2,5-dione [Example 168] | 46 | 1 | 1 | 0 | Survival % Without Anti-Fas ([1]; Dose 0.3 (μM)): 91%; Survival % With Anti-Fas [1, 3]: 49%; Survival % Without Anti-Fas ([1]; Dose 1 (μM)): 89%; Survival % With Anti-Fas [1, 4]: 49%; Survival % Without Anti-Fas ([1]; Dose 30 (μM)): 0%; Survival % With Anti-Fas [1, 7]: 0%
2 | CN(C)CCCn1cc(C2=C(n3ccc4ccccc43)C(=O)NC2=O)c2cc(OCc3ccccc3)ccc21 [Example 136, 3-(5-benzyloxy-1-(3-dimethylaminopropyl)indol-3-yl)-4-(indol-1-yl)-pyrrole-2,5-dione] |  |  |  |  | cells killed ([2]; 10 μM): 100%; IC50 ([2]; Homo sapiens, DU-145, 168 h, 7 days of treatment): ~7 µM
3 | N=C(N)SCCCn1c2ccccc2c2c3c(n4c5ccccc5cc4c21)C(=O)NC3=O [Example 145] | 93 | 35 | 11 |  | 
4 | Cc1cn(C2=C(c3cn(CCCSC(=N)N)c4ccccc34)C(=O)NC2=O)c2ccccc12 [Example 146, 3-(3-((amidiothio)propyl)indol-3-yl)-4-(3-methylindol-1-yl)-pyrrole-2,5-dione] | >90 | 20 | 0 |  | 
5 | N=C(N)SCCCn1cc(C2=C(n3ccc4cc(OCc5ccccc5)ccc43)C(=O)NC2=O)c2ccccc21 [Example 147, 3-(3-((amidiothio)propyl)indol-3-yl)-4-(5-benzyloxyindol-1-yl)-pyrrole-2,5-dione] | >90 | 20 | 0 |  | 
6 | N=C(N)SCCCn1cc(C2=C(n3ccc4ccccc43)C(=O)NC2=O)c2cc(OCc3ccccc3)ccc21 [Example 148, 3-(3-((amidiothio)propyl)-5-benzyloxyindol-3-yl)-4-(indol-1-yl)-pyrrole-2,5-dione] | >90 |  | 0 | 20 | 
7 | Cc1cn(C2=C(c3cn(CCCSC(=N)N)c4ccc(OCc5ccccc5)cc34)C(=O)NC2=O)c2ccccc12 [Example 149, 3-(3-((amidiothio)propyl)-5-benzyloxyindol-3-yl)-4-(3-methylindol-1-yl)-pyrrole-2,5-dione] | >90 | 2 | 0 |  | 
8 | Cc1cc2ccccc2n1C1=C(c2cn(CCCSC(=N)N)c3ccc(OCc4ccccc4)cc23)C(=O)NC1=O [Example 150, 3-(3-((amidiothio)propyl)-5-benzyloxyindol-3-yl)-4-(2-methylindol-1-yl)-pyrrole-2,5-dione] | >90 | 5 | 0 |  | 
9 | N=C(N)SCCCn1cc(C2=C(N3CCc4ccccc43)C(=O)NC2=O)c2ccccc21 [Example 159, 3-(3-((amidiothio)propyl)indol-3-yl)-4-(indolin-1-yl)-pyrrole-2,5-dione] | >90 | 10 | 17 |  | 
10 | Cn1cc(C2=C(n3cc(CCCSC(=N)N)c4ccccc43)C(=O)NC2=O)c2ccccc21 [Example 167] | 50 | 5 | 0 | 0 | Survival % Without Anti-Fas ([1]; Dose 0.3 (μM)): 98%; Survival % With Anti-Fas [1, 3]: 43%; Survival % Without Anti-Fas ([1]; Dose 1 (μM)): 88%; Survival % With Anti-Fas [1, 4]: 17%; Survival % Without Anti-Fas ([1]; Dose 30 (μM)): 0%; Survival % With Anti-Fas [1, 7]: 0%; IC50 (Human lung H460 cells): ~3 µM
